Reference: article PMC8370991, “Structural basis for the inhibition of HTLV-1 integration inferred from cryo-EM deltaretroviral intasome structures” (Nature Communications, 2021)

Molecular target: T1, recombinant HTLV-1 IN (Human T-cell leukemia virus 1, UniProt P03362)
T1 construct: made in house
Assay: In vitro integration strand transfer assay with HTLV-1 IN
Type: biochemical
Conditions: INSTI at 634 nM
Protocol: We used in vitro strand transfer assays to screen this small molecule library for its ability to inhibit recombinant HTLV-1 IN. The enzyme was incubated with an oligonucleotide vDNA donor mimic in the presence or absence of INSTIs and was allowed to react with a supercoiled plasmid mimicking target DNA. During the screening, the concentration of each compound was adjusted to 634 nM to provide optimal resolution of efficacy between well- and under-performing compounds.
The donor vDNA that mimics the 3′-processed LTR of HTLV-1 or STLV-1 DNA was preassembled by annealing the U5_S20Q_UP and U5_S20Q_B or MarB43_U5_S30UP or MarB43_U5_S30B oligonucleotides, respectively (Supplementary Table 4) in 100 mM Tris pH 7.4, 400 mM NaCl. For HTLV-1 IN, strand transfer reactions were conducted in a solution of 24.3 mM PIPES pH 6.0, 138.4 mM NaCl, 16.6 mM MgCl2, 5.8 μM ZnCl2, 12.7 mM DTT, 0.53 μM donor DNA and 4 μg of HTLV-1 IN[9],[39]. In brief, the reaction was incubated at RT for 15 min in the presence of an INSTI or dimethyl sulfoxide (DMSO) control and the reaction was started by the addition of 300 ng of pGEM-9Zf(-) supercoiled plasmid DNA. The reaction was incubated for 1 h at 37 °C and stopped by adding 0.5% SDS and 25 mM ethylenediaminetetraacetic acid (EDTA), pH 8.0.
Proteins were degraded by incubation with 30 μg of proteinase K (Roche) at 37 °C for 1 h. DNA was precipitated at −20 °C overnight in the presence of ethanol supplemented with 20 μg of glycogen and then resuspended in 1.5× agarose loading dye. The DNA products were separated by electrophoresis through 1.5% agarose gel and stained with ethidium bromide and imaged using the BioRad GelDox XR + imager. The data were analysed and the IC50 calculated as previously described. In brief, the DNA band that corresponds to the concerted integration product was quantified by densitometry in ImageLab 4.1 (Bio-Rad). All experiments were done in triplicate. Quantified data points were fitted to dose–response curves in Prism 9. The cumulative standard deviation for each drug was calculated as an average of the upper limit and lower limit values: Lowerlimit=IC50/10^logSE(IC50) Upperlimit=IC50×10^logSE(IC50)

T1 sequence (P03362 1168-1462): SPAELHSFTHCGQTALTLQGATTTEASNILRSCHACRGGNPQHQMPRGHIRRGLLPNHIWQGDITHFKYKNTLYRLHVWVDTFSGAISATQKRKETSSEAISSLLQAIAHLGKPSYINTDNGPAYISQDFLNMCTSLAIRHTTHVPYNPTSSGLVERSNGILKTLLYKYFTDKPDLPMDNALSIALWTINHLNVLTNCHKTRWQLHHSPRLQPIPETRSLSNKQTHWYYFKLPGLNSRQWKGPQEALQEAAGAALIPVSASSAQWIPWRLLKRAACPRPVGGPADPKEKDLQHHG

Compound	HTLV-1 IN strand transfer activity (No drug = 100) (Replicate 1)	HTLV-1 IN strand transfer activity (No drug = 100) (Replicate 2)	HTLV-1 IN strand transfer activity (No drug = 100) (Replicate 3)
O=C(NNC(=O)c1cccc(O)c1O)c1cccc(O)c1O [XZ15, N'-(2,3-dihydroxybenzoyl)-2,3-dihydroxybenzohydrazide]	99.084%	89.5316%	92.2753%
O=C(NNC(=O)c1cccc(O)c1O)c1ccccc1O [XZ45, 2,3-dihydroxy-N'-(2-hydroxybenzoyl)benzohydrazide]	95.0641%	107.975%	100.183%
O=C(NN1Cc2ccc(O)c(O)c2C1=O)c1cccc(O)c1O [XZ49, N-(6,7-dihydroxy-1-oxoisoindolin-2-yl)-2,3-dihydroxybenzamide]	94.3672%	88.3747%	109.808%
O=C1c2ccc(O)c(O)c2C(=O)N1Cc1ccc(F)c(Cl)c1 [XZ89, 2-(3-chloro-4-fluorobenzyl)-4,5-dihydroxyisoindoline-1,3-dione]	87.9286%	85.883%	98.5818%
O=C1c2c(ccc(O)c2O)CN1Cc1ccc(F)c(Cl)c1 [XZ90, 2-(3-chloro-4-fluorobenzyl)-6,7-dihydroxyisoindolin-1-one]	47.6981%	83.7072%	92.5665%
Cc1c2c(c(O)c(=O)n1C)C(=O)N(Cc1ccc(F)c(Cl)c1)C2=O [XZ202, 2-(3-chloro-4-fluorobenzyl)-7-hydroxy-4,5-dimethyl-1H-pyrrolo[3,4-c]pyridine-1,3,6(2H,5H)-trione]	98.3269%	98.0594%	97.9688%
COC(=O)CCc1c2c(c(O)c(=O)n1C(C)C)C(=O)N(Cc1ccc(F)c(Cl)c1)C2=O [XZ220, methyl 3-(2-(3-chloro-4-fluorobenzyl)-7-hydroxy-5-isopropyl-1,3,6-trioxo-2,3,5,6-tetrahydro-1H-pyrrolo[3,4-c]pyridin-4-yl)propanoate]	93.628%	97.195%	85.9754%
CN(C)C(=O)c1nc(O)c(O)c2c1CCN(Cc1ccc(F)c(Cl)c1)C2=O [XZ235, 6-(3-chloro-4-fluorobenzyl)-3,4-dihydroxy-N,N-dimethyl-5-oxo-5,6,7,8-tetrahydro-2,6-naphthyridine-1-carboxamide]	50.5732%	55.8637%	62.5799%
Cc1c2c(c(O)c(=O)n1Cc1ccc(F)c(Cl)c1)C(=O)N(C)C2=O [XZ242, 5-(3-chloro-4-fluorobenzyl)-7-hydroxy-2,4-dimethyl-1H-pyrrolo[3,4-c]pyridine-1,3,6(2H,5H)-trione]	115.41%	99.061%	100.661%
CCN1CCn2c(c3c(c(O)c2=O)C(=O)N(Cc2ccc(F)c(Cl)c2)C3=O)C1=O [XZ256, 9-(3-chloro-4-fluorobenzyl)-2-ethyl-7-hydroxy-3,4-dihydropyrrolo[3',4':3,4]pyrido[1,2-a]pyrazine-1,6,8,10(2H,9H)-tetraone]	112.467%	93.5244%	114.376%
